Measured values taken from patent publication US9730937B2, “RAF kinase modulator compounds and methods of use thereof” (AMBIT BIOSCIENCES CORPORATION, priority 2008, dated 2017).
Counter-ions that a name gives are not always drawn. Like-named read-outs stand apart in the source and are kept apart here.

Tests used:
[1] = target: RAF kinases (Homo sapiens (Human), UniProt P04049); conditions: read-out: RAF1 Kd, class symbols
[2] = target: wild type BRAF kinase (Homo sapiens (Human), UniProt P15056); conditions: read-out: BRAF WT Kd, class symbols
Sequence of wild type BRAF kinase (P15056 whole entry): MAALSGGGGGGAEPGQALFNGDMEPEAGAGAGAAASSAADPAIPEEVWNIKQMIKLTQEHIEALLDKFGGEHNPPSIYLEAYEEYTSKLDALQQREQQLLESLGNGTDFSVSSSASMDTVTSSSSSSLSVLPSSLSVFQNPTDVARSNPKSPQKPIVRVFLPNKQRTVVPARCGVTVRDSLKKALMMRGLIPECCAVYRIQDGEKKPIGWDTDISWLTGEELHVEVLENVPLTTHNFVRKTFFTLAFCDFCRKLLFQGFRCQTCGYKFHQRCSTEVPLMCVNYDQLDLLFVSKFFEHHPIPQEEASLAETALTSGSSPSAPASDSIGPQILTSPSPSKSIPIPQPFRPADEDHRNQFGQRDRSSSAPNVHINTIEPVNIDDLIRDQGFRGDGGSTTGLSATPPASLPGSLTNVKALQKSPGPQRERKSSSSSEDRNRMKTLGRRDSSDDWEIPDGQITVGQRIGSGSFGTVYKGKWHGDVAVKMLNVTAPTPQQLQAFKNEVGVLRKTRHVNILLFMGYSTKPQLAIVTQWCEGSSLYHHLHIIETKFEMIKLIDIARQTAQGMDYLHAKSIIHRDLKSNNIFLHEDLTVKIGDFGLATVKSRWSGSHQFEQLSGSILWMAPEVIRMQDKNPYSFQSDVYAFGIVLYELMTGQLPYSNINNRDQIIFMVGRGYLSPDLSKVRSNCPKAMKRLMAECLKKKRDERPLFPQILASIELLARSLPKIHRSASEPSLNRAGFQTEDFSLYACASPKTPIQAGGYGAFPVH

[3] = tested on: panel of 290 distinct kinases (321 in the larger panel), excluding mutant variants; conditions: kinase selectivity score, class symbols
[4] = target: mutant BRAF kinase (Homo sapiens (Human), UniProt P15056, V600E); conditions: read-out: BRAF V600E Kd, class symbols
Sequence of mutant BRAF kinase (P15056 whole entry V600E): as the sequence (P15056 whole entry) above, with V600E counted along it

[5] = value marked * (larger kinase panel)

Sequence of RAF kinases (P04049 whole entry): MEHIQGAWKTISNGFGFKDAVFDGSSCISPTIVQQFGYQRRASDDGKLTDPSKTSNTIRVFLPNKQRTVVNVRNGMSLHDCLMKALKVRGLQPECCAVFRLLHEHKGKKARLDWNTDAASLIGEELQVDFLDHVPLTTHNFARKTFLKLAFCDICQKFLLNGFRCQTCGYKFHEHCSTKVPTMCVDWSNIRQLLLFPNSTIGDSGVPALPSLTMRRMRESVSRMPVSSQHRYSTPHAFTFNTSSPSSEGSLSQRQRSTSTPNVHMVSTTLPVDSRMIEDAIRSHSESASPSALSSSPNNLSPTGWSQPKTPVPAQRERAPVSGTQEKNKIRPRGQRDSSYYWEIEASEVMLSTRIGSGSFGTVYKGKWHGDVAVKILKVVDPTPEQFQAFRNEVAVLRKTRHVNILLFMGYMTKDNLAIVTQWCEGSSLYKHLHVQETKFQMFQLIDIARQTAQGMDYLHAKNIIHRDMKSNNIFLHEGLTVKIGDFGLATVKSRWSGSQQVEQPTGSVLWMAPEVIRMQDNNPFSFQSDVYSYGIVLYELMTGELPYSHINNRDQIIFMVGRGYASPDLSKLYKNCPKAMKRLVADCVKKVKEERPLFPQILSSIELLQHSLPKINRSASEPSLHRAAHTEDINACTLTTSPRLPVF

SMILES: COc1cc2ncnc(Oc3cccc(NC(=O)Nc4cc(C(F)(F)F)nn4-c4ccc(F)cc4)c3)c2cc1OC [Ex 171, 1-[3-(6,7-dimethoxyquinazolin-4-yloxy)phenyl]-3-[1-(4-fluorophenyl)-3-(trifluoromethyl)-1H-pyrazol-5-yl]urea]
- Kd [1]: > 1000 nM
- Kd [2]: > 1000 nM
- S35 [3, 5]: C* (0.20 < C ≦ 0.40)

SMILES: COc1cc2ncnc(Oc3cccc(NC(=O)Nc4cc(C(F)(F)F)nn4-c4ccc(C)cc4)c3)c2cc1OC [Ex 172, 1-[3-(6,7-dimethoxyquinazolin-4-yloxy)phenyl]-3-[1-p-tolyl-3-(trifluoromethyl)-1H-pyrazol-5-yl]urea]
- Kd [1]: > 1000 nM
- Kd [2]: > 1000 nM
- S35 [3, 5]: C* (0.20 < C ≦ 0.40)

SMILES: CCOc1cc2ncnc(Oc3cccc(NC(=O)Nc4cc(C(C)(C)C)on4)c3)c2cc1OC [Ex 6, 1-(5-tert-butylisoxazol-3-yl)-3-[3-(7-ethoxy-6-methoxyquinazolin-4-yloxy)phenyl]urea hydrochloride]
- Kd [2]: > 1000 nM
- S35 ([3]; 290 distinct kinases): D (D > 0.40)
- Kd [4]: < 250 nM

SMILES: COc1cc2ncnc(Oc3cccc(NC(=O)Nc4cc(CN5CCOCC5)cc(C(F)(F)F)c4)c3)c2cc1OC [Ex 151, 1-(3-(6,7-dimethoxyquinazolin-4-yloxy)phenyl)-3-(3-(morpholinomethyl)-5-(trifluoromethyl)phenyl)urea]
- Kd [2]: > 1000 nM
- S35 [3, 5]: C* (0.20 < C ≦ 0.40)
- Kd [4]: < 250 nM

SMILES: CC(C)(C)c1cc(NC(=O)Nc2cccc(Sc3ncnc4cc(F)c(F)cc34)c2)no1 [Ex 47, 1-(5-tert-butylisoxazol-3-yl)-3-(3-(6,7-difluoroquinazolin-4-ylthio)phenyl)urea]
- Kd [1]: > 1000 nM
- Kd [2]: > 1000 nM
- S35 ([3]; 290 distinct kinases): A (A ≦ 0.10)

SMILES: COCCOc1cc(NC(=O)Nc2cccc(Sc3ncnc4cc(OC)c(OC)cc34)c2)ccc1C(F)(F)F [Ex 148, 1-(3-(6,7-dimethoxyquinazolin-4-ylthio)phenyl)-3-(3-(2-methoxyethoxy)-4-(trifluoromethyl)phenyl)urea]
- Kd [1]: > 1000 nM
- Kd [2]: > 1000 nM
- S35 [3, 5]: B* (0.10 < B ≦ 0.20)

SMILES: COc1cc2ncnc(Oc3cccc(NC(=O)Nc4cc(C(C)(C)C)nn4-c4ccccc4)c3)c2cc1OC [Ex 153, 1-(3-tert-butyl-1-phenyl-1H-pyrazol-5-yl)-3-(3-(6,7-dimethoxyquinazolin-4-yloxy)phenyl)urea]
- Kd [1]: > 1000 nM
- Kd [2]: > 1000 nM
- S35 [3, 5]: D* (D > 0.40)

SMILES: COc1cc2ncnc(Sc3cccc(NC(=O)Nc4cc(C5(C(F)(F)F)CCC5)no4)c3)c2cc1OC [Ex 156, 1-(3-(6,7-dimethoxyquinazolin-4-ylthio)phenyl)-3-(3-(1-(trifluoromethyl)cyclobutyl)isoxazol-5-yl)urea]
- Kd [1]: > 1000 nM
- Kd [2]: > 1000 nM
- S35 [3, 5]: C* (0.20 < C ≦ 0.40)

SMILES: COc1cc2ncnc(Sc3cccc(NC(=O)Nc4ccc(C(F)(F)F)c(OC)c4)c3)c2cc1OC [Ex 190, 1-(3-(6,7-dimethoxyquinazolin-4-ylthio)phenyl)-3-(3-methoxy-4-(trifluoromethyl)phenyl)urea]
- Kd [1]: > 1000 nM
- Kd [2]: > 1000 nM
- S35 [3, 5]: B* (0.10 < B ≦ 0.20)

SMILES: CCOC(C)(C)c1cc(NC(=O)Nc2cccc(Oc3ncnc4cc(OC)c(OC)cc34)c2)n(-c2ccccc2)n1 [Ex 168, 1-[3-(6,7-dimethoxyquinazolin-4-yloxy)phenyl]-3-[3-(2-ethoxypropan-2-yl)-1-phenyl-1H-pyrazol-5-yl]urea]
- Kd [1]: > 1000 nM
- Kd [2]: > 1000 nM
- S35 [3, 5]: C* (0.20 < C ≦ 0.40)

SMILES: CCOc1cc2c(Oc3cccc(NC(=O)Nc4cc(C(C)(C)C)on4)c3)ncnc2cc1OC [Ex 11, 1-(5-tert-butylisoxazol-3-yl)-3-(3-(6-ethoxy-7-methoxyquinazolin-4-yloxy)phenyl)urea]
- Kd [2]: > 1000 nM
- S35 ([3]; 290 distinct kinases): C (0.20 < C ≦ 0.40)
- Kd [4]: < 250 nM

SMILES: COCCOc1cc(NC(=O)Nc2cccc(Oc3ncnc4cc(OC)c(OC)cc34)c2)ccc1C(F)(F)F [Ex 147, 1-(3-(6,7-dimethoxyquinazolin-4-yloxy)phenyl)-3-(3-(2-methoxyethoxy)-4-(trifluoromethyl)phenyl)urea]
- Kd [2]: > 1000 nM
- S35 [3, 5]: B* (0.10 < B ≦ 0.20)

SMILES: COc1cc2ncnc(Oc3cccc(NC(=O)Nc4cc(C5CCOCC5)no4)c3)c2cc1OC [Ex 123, 1-(3-(6,7-dimethoxyquinazolin-4-yloxy)phenyl)-3-(3-(tetrahydro-2H-pyran-4-yl)isoxazol-5-yl)urea]
- Kd [2]: > 1000 nM
- S35 ([3]; 290 distinct kinases): B (0.10 < B ≦ 0.20)

SMILES: COc1cc2ncnc(Oc3cccc(NC(=O)Nc4nccc(C(F)(F)F)n4)c3)c2cc1OC [Ex 143, 1-(3-(6,7-dimethoxyquinazolin-4-yloxy)phenyl)-3-(4-(trifluoromethyl)pyrimidin-2-yl)urea]
- Kd [2]: > 1000 nM
- S35 ([3]; 290 distinct kinases): A (A ≦ 0.10)

SMILES: COc1cc2ncnc(Sc3cccc(NC(=O)Nc4cc(C(C)(C)C)on4)c3)c2cc1OCCN1CCCCC1 [Ex 65, 1-(5-tert-butylisoxazol-3-yl)-3-(3-(7-methoxy-6-(2-(piperidin-1-yl)ethoxy)quinazolin-4-ylthio)phenyl)urea]
- Kd [2]: > 1000 nM
- S35 ([3]; 290 distinct kinases): C (0.20 < C ≦ 0.40)
- Kd [4]: < 250 nM

SMILES: COCCOc1cc(NC(=O)Nc2cccc(Oc3ncnc4cc(OC)c(OC)cc34)c2)cc(C(F)(F)F)c1 [Ex 129, 1-(3-(6,7-dimethoxyquinazolin-4-yloxy)phenyl)-3-(3-(2-methoxyethoxy)-5-(trifluoromethyl)phenyl)urea]
- Kd [2]: > 1000 nM
- S35 ([3]; 290 distinct kinases): B (0.10 < B ≦ 0.20)

SMILES: COc1cc2ncnc(Oc3cccc(NC(=O)Nc4cc(C(C)(C)C)on4)c3)c2cc1OC [Ex 1, 1-(5-tert-butylisoxazol-3-yl)-3-(3-(6,7-dimethoxyquinazolin-4-yloxy)phenyl)urea]
- Kd [2]: > 1000 nM
- S35 ([3]; 290 distinct kinases): C (0.20 < C ≦ 0.40)
- Kd [4]: < 250 nM

SMILES: COc1cc2c(Oc3cccc(NC(=O)Nc4cc(C(C)(C)C)on4)c3)ncnc2cc1OCCCN1CCN(CCO)CC1 [Ex 30, 1-(5-tert-butylisoxazol-3-yl)-3-(3-(7-(3-(4-(2-hydroxyethyl)piperazin-1-yl)propoxy)-6-methoxyquinazolin-4-yloxy)phenyl)urea]
- Kd [2]: < 250 nM
- S35 ([3]; 290 distinct kinases): D (D > 0.40)
- Kd [4]: < 250 nM

SMILES: COc1cc2ncnc(Oc3cccc(NC(=O)Nc4cc(C(C)(C)C)nn4C)c3)c2cc1OC [Ex 158, 1-(3-tert-butyl-1-methyl-1H-pyrazol-5-yl)-3-(3-(6,7-dimethoxyquinazolin-4-yloxy)phenyl)urea]
- Kd [2]: > 1000 nM
- S35 [3, 5]: C* (0.20 < C ≦ 0.40)
- Kd [4]: < 250 nM

SMILES: COCCOc1ccc2ncnc(Oc3cccc(NC(=O)Nc4cc(C(C)(C)C)on4)c3)c2c1 [Ex 40, 1-(5-tert-butylisoxazol-3-yl)-3-(3-(6-(2-methoxyethoxy)quinazolin-4-yloxy)phenyl)urea]
- Kd [2]: > 1000 nM
- S35 ([3]; 290 distinct kinases): C (0.20 < C ≦ 0.40)
- Kd [4]: < 250 nM

SMILES: COc1cc2ncnc(Oc3cc(NC(=O)Nc4cc(C(C)(C)C)on4)ccc3F)c2cc1OC [Ex 9, 1-(5-tert-butylisoxazol-3-yl)-3-(3-(6,7-dimethoxyquinazolin-4-yloxy)-4-fluorophenyl)urea]
- Kd [2]: > 1000 nM
- S35 ([3]; 290 distinct kinases): D (D > 0.40)
- Kd [4]: < 250 nM

SMILES: COCCOc1ccc2ncnc(Sc3cccc(NC(=O)Nc4cc(C(C)(C)C)on4)c3)c2c1 [Ex 87, 1-(5-tert-butylisoxazol-3-yl)-3-(3-(6-(2-methoxyethoxy)quinazolin-4-ylthio)phenyl)urea]
- Kd [2]: > 1000 nM
- S35 ([3]; 290 distinct kinases): C (0.20 < C ≦ 0.40)
